# Results published in patent publication US20140228286A1, “SPECIFIC PDE4B-INHIBITORS FOR THE TREATMENT OF DIABETES MELLITUS” (BOEHRINGER INGELHEIM INTERNATIONAL GMBH, priority 2013, published 2014).
# Molecular target: T1, PDE4B (Homo sapiens, UniProt Q07343)
# T1 construct: active site fragment comprising the amino acids 152-484
# Assay: PDE4B Scintillation Proximity (SPA) Assay
# Assay type: biochemical
# Conditions: PDE4B active site fragment amino acids 152-484; [3H]cAMP; 30° C., one hour; read-out: Experimentally determined IC50-value for PDE4B inhibition
# Text: The IC50-values of the compounds of the invention (Examples 1.1 to 1.47) with respect to their PDE4B-inhibiting ability have been determined with a Scintillation Proximity (SPA) Assay (GE Healthcare, No. TRKQ7090). The Scintillation Proximity (SPA) Assay is based on the detection of the different affinities of the cyclic 3′-5′adenosine monophosphate (cAMP, low affinity) and the linear 5′-adenosine monophosphate (AMP, high affinity) to yttrium-silicate-scintillator beads. The cAMP-specific phosphodiesterase (PDE) PDE4B cleaves the 3′-phosphodiester bond of the tritium-labelled-[^3H]cAMP to the [^3H]5′-AMP. This [^3H]5′-AMP associates with the scintillator beads because of their higher affinity and causes scintillations (light flashes) which can be measured in a Wallac Microbeta Scintillation Counter.
# 10 μl of a [^3H]cAMP-solution (0.05 μCi in H2O, 10-30 Ci/mmol) are added to 89 μl of a PDE4B-enzyme-solution (active site fragment comprising the amino acids 152-484; 0.15-0.18 ng) in assay buffer (50 mM Tris HCl pH 7.5; 8.3 mM MgCl2; 1,7 mM ethylene glyclol tetraacetic acid (EGTA); 0.25 mg/ml bovine serum albumin (BSA)) and this mixture is incubated at 30° C. for one hour
# a) without the compound to be tested (in the presence of 1 μl dimethylsulfoxide (DMSO), corresponding to 1% DMSO) and b) in the presence of the compound to be tested in a concentration of 125 μM, 25 μM, 5 μM, 1 μM, 200 nM, 40 nM, 8 nM, 1.6 nM, 0.32 nM, 0.064 nM, 0.0128 nM (dilution series in 5er-steps beginning from 125 μM until 0.0128 nM, in the presence of 1% DMSO).
# After this incubation the reaction is stopped by the addition of 50 μl of bead-solution (500 mg beads/35 ml H2O, 18 mM zinc sulfate). In the following 45 minutes the beads have the opportunity to form a sediment. After that the scintillations are measured in the scintillation counter. If the tested compound is able to inhibit the enzymatic activity of the PDE4B-enzyme, less [^3H]AMP depending on the concentration of the tested compound is produced and less scintillations are measurable. […] The IC50-value stands for the compound concentration at which the PDE4B enzyme activity is inhibited to a half maximal value. Therefore the lower the IC50-value is the better is the PDE4B inhibition.
# T1 sequence (Q07343 324-656): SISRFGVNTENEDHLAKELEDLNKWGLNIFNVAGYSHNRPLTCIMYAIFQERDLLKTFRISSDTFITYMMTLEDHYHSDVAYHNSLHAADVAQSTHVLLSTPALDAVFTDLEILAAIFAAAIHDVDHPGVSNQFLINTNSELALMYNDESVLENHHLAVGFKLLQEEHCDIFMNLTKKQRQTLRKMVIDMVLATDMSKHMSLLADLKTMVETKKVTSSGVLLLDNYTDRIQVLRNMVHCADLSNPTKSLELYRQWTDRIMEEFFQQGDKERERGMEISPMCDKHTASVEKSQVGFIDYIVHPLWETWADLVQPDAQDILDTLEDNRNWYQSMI
row,IC50,Structure (SMILES)
1,24.2 nM,"CC(C)[C@H](CO)Nc1nc(N2CCC(c3ccc(Cl)cc3)CC2)nc2c1[S+]([O-])CC2 (stereo partly drawn) [Example 1.1, (R)-2-{2-[4-(4-chlorophenyl)-piperidin-1-yl]-5-oxo-6,7-dihydro-5H-5λ^4-thieno[3,2-d]pyrimidin-4-ylamino}-3-methylbutan-1-ol]"
2,3.4 nM,"[O-][S+]1CCc2nc(N3CCC(c4ccc(Cl)cc4)CC3)nc(NC3(CO)CC3)c21 (stereo not drawn) [Example 1.2, (1-{2-[4-(4-chlorophenyl)-piperidin-1-yl]-5-oxo-6,7-dihydro-5H-5λ^4-thieno[3,2-d]pyrimidin-4-ylamino}-cyclopropyl)-methanol]"
3,8.3 nM,"CCC[C@H](CO)Nc1nc(N2CCC(c3ccc(Cl)cc3)CC2)nc2c1[S+]([O-])CC2 (stereo partly drawn) [Example 1.3, (R)-2-{2-[4-(4-chlorophenyl)-piperidin-1-yl]-5-oxo-6,7-dihydro-5H-5λ^4-thieno[3,2-d]pyrimidin-4-ylamino}-pentan-1-ol]"
4,15.3 nM,"CC(C)(O)[C@H](Nc1nc(N2CCC(c3ccc(Cl)cc3)CC2)nc2c1[S+]([O-])CC2)c1ccc(F)cc1 (stereo partly drawn) [Example 1.4, (R)-1-{2-[4-(4-chlorophenyl)-piperidin-1-yl]-5-oxo-6,7-dihydro-5H-5λ^4-thieno[3,2-d]pyrimidin-4-ylamino}-1-(4-fluorophenyl)-2-methylpropan-2-ol]"
5,0.6 nM,"CN1C[C@@H](Nc2nc(N3CCC(c4ccc(Cl)cc4)CC3)nc3c2[S+]([O-])CC3)CCC1=O (stereo partly drawn) [Example 1.5, (S)-5-{2-[4-(4-chlorophenyl)-piperidin-1-yl]-5-oxo-6,7-dihydro-5H-5λ^4-thieno[3,2-d]pyrimidin-4-ylamino}-1-methylpiperidin-2-one]"
6,4.7 nM,"[O-][S+]1CCc2nc(N3CCC(c4ccc(Cl)cc4)CC3)nc(NC3CCOCC3)c21 (stereo not drawn) [Example 1.6, {2-[4-(4-chlorophenyl)-piperidin-1-yl]-5-oxo-6,7-dihydro-5H-5λ^4-thieno[3,2-d]pyrimidin-4-yl}-(tetrahydropyran-4-yl)-amine]"
7,> 10000 nM,"CN1C(=O)Nc2ccccc2C12CCN(c1nc3c(c(NC4(CO)CC4)n1)[S+]([O-])CC3)CC2 (stereo not drawn) [Example 1.7, 1-(4-(1-hydroxymethylcyclopropylamino)-5-oxo-6,7-dihydro-5H-5λ^4-thieno[3,2-d]pyrimidin-2-yl)-3′-methyl-1′H-spiro[piperidin-4,4′-quinazolin]-2′(3′H)-one]"
8,1.9 nM,"[O-][S+]1CCc2nc(N3CCC(c4noc5ccccc45)CC3)nc(NC3(CO)CC3)c21 (stereo not drawn) [Example 1.8, {1-[2-(4-benzo[d]isoxazol-3-yl-piperidin-1-yl)-5-oxo-6,7-dihydro-5H-5λ^4-thieno[3,2-d]pyrimidin-4-ylamino]-cyclopropyl}-methanol]"
9,53.8 nM,"CCc1[nH]c2ccc(F)cc2c1C1CCN(c2nc3c(c(NC4(CO)CC4)n2)[S+]([O-])CC3)CC1 (stereo not drawn) [Example 1.9, (1-{2-[4-(2-ethyl-5-fluoro-1H-indol-3-yl)-piperidin-1-yl]-5-oxo-6,7-dihydro-5H-5λ^4-thieno[3,2-d]pyrimidin-4-ylamino}-cyclopropyl)-methanol]"
10,3.5 nM,"CN1C[C@@H](Nc2nc(N3CCC(C#N)(c4ccccc4)CC3)nc3c2[S+]([O-])CC3)CCC1=O (stereo partly drawn) [Example 1.10, 1-[4-((S)-1-methyl-6-oxopiperidin-3-ylamino)-5-oxo-6,7-dihydro-5H-5λ^4-thieno[3,2-d]pyrimidin-2-yl]-4-phenylpiperidin-4-carbonitrile]"
11,> 10000 nM,"CN1C(=O)Nc2ccccc2C12CCN(c1nc3c(c(NC4CCOCC4)n1)[S+]([O-])CC3)CC2 (stereo not drawn) [Example 1.11, 3′-methyl-1-(4-(tetrahydro-2H-pyran-4-ylamino)-5-oxo-6,7-dihydro-5H-5λ^4-thieno[3,2-d]pyrimidin-2-yl)-1′H-spiro[piperidin-4,4′-quinazolin]-2′(3′H)-one]"
12,> 10000 nM,"[O-][S+]1CCc2nc(N3CCC(c4ccncc4)CC3)nc(Nc3cccc(F)c3)c21 (stereo not drawn) [Example 1.12, (3-fluorophenyl)-[5-oxo-2-(3,4,5,6-tetrahydro-2H-[4,4′]bipyridinyl-1-yl)-6,7-dihydro-5H-5λ^4-thieno[3,2-d]pyrimidin-4-yl]-amine]"
13,> 10000 nM,"CCc1[nH]c2ccc(F)cc2c1C1CCN(c2nc3c(c(Nc4cccc(F)c4)n2)[S+]([O-])CC3)CC1 (stereo not drawn) [Example 1.13, {2-[4-(2-ethyl-5-fluoro-1H-indol-3-yl)-piperidin-1-yl]-5-oxo-6,7-dihydro-5H-5λ^4-thieno[3,2-d]pyrimidin-4-yl}-(3-fluorophenyl)-amine]"
14,16 nM,"[O-][S+]1CCc2nc(N3CCC(c4ccc(F)cc4F)CC3)nc(NC3(CO)CC3)c21 (stereo not drawn) [Example 1.14, (1-{2-[4-(2,4-difluorophenyl)-piperidin-1-yl]-5-oxo-6,7-dihydro-5H-5λ^4-thieno[3,2-d]pyrimidin-4-ylamino}-cyclopropyl)-methanol]"
15,15.4 nM,"[O-][S+]1CCc2nc(N3CCC(c4ccc(F)cc4F)CC3)nc(NC3CCOCC3)c21 (stereo not drawn) [Example 1.15, {2-[4-(2,4-difluorophenyl)-piperidin-1-yl]-5-oxo-6,7-dihydro-5H-5λ^4-thieno[3,2-d]pyrimidin-4-yl}-(tetrahydropyran-4-yl)-amine]"
16,0.1 nM,"CN1C[C@@H](Nc2nc(N3CCC(c4nc5ccccc5o4)CC3)nc3c2[S+]([O-])CC3)CCC1=O (stereo partly drawn) [Example 1.16, (S)-5-[2-(4-benzoxazol-2-yl-piperidin-1-yl)-5-oxo-6,7-dihydro-5H-5λ^4-thieno[3,2-d]pyrimidin-4-ylamino]-1-methylpiperidin-2-one]"
17,2.73 nM,"[O-][S+]1CCc2nc(N3CCC(c4noc5cc(F)ccc45)CC3)nc(NC3(CO)CC3)c21 (stereo not drawn) [Example 1.17, (1-{2-[4-(6-fluorobenzo[d]isoxazol-3-yl)-piperidin-1-yl]-5-oxo-6,7-dihydro-5H-5λ^4-thieno[3,2-d]pyrimidin-4-ylamino}-cyclopropyl)-methanol]"
18,1.89 nM,"[O-][S+]1CCc2nc(N3CCC(c4noc5ccc(F)cc45)CC3)nc(NC3(CO)CC3)c21 (stereo not drawn) [Example 1.18, (1-{2-[4-(5-fluorobenzo[d]isoxazol-3-yl)-piperidin-1-yl]-5-oxo-6,7-dihydro-5H-5λ^4-thieno[3,2-d]pyrimidin-4-ylamino}-cyclopropyl)-methanol]"
19,3.46 nM,"[O-][S+]1CCc2nc(N3CCC(c4cc(-c5ccco5)n[nH]4)CC3)nc(NC3CCOCC3)c21 (stereo not drawn) [Example 1.19, {2-[4-(5-furan-2-yl-2H-pyrazol-3-yl)-piperidin-1-yl]-5-oxo-6,7-dihydro-5H-5λ^4-thieno[3,2-d]pyrimidin-4-yl}-(tetrahydropyran-4-yl)-amine]"
20,2.7 nM,"[O-][S+]1CCc2nc(N3CCC(c4nc(-c5ccncc5)no4)CC3)nc(Nc3cccc(F)c3)c21 (stereo not drawn) [Example 1.20, (3-fluorophenyl)-{5-oxo-2-[4-(3-pyridin-4-yl-[1,2,4]oxadiazol-5-yl)-piperidin-1-yl]-6,7-dihydro-5H-5λ^4-thieno[3,2-d]pyrimidin-4-yl}-amine]"
21,> 10000 nM,"CC(C)[C@H](CO)Nc1nc(N2CCC(c3nc(-c4ccncc4)no3)CC2)nc2c1[S+]([O-])CC2 (stereo partly drawn) [Example 1.21, (R)-3-methyl-2-{5-oxo-2-[4-(3-pyridin-4-yl-[1,2,4]oxadiazol-5-yl)-piperidin-1-yl]-6,7-dihydro-5H-5λ^4-thieno[3,2-d]pyrimidin-4-ylamino}-butan-1-ol]"
